Structures can show the parent of a compound that is named as a salt.
Target: T1, acyl-CoA: cholesterol acyltransferase (ACAT) (Oryctolagus cuniculus, UniProt G1SFD9)
T1 construct: in a tissue preparation containing rabbit intestinal microsomes; from tissue; host or cells: rabbit intestine, microsomes
T1 sequence (G1SFD9 1-524): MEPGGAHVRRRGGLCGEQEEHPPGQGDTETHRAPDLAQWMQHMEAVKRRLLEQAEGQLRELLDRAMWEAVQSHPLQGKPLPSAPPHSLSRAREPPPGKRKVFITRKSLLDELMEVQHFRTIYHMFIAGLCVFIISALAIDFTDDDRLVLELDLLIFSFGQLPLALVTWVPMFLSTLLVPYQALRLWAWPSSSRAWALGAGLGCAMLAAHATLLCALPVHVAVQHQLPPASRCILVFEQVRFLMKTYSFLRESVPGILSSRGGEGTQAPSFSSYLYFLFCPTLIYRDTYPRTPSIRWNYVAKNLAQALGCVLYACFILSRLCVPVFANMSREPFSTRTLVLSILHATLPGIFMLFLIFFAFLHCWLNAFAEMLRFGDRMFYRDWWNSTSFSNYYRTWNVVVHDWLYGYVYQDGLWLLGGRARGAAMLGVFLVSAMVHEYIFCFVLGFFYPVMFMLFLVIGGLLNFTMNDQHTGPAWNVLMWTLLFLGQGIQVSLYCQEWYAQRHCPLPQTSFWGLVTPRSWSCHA
Experiment: in vitro ACAT inhibition test (radiolabeled cholesterol oleate formed from radiolabeled oleic acid, rabbit intestinal microsomes)
Assay type: biochemical
Conditions: concentration required to inhibit the activity of the enzyme by 50%
Protocol: The ability of representative compounds of the present invention to inhibit ACAT was measured using an in vitro test more fully described in F. J. Field and R. G. Salone, Biochemica et Biophysica 712:557-570 (1982). The test assesses the ability of a test compound to inhibit the acylation of cholesterol by oleic acid by measuring the amount of radiolabeled cholesterol oleate formed from radiolabeled oleic acid in a tissue preparation containing rabbit intestinal microsomes.
The data appear in Table 1 where they are expressed as IC50 values; i.e., the concentration of test compound required to inhibit the activity of the enzyme by 50%.

In order of falling IC50:
1. CC(C)c1cccc(C(C)C)c1NC(=O)C(CC(O)c1ccc(F)cc1)C(=O)O (stereo not drawn) [Example 7, γ-[2,6-bis(1-methylethyl)phenyl]-amino]carbonyl]-4-fluoro-α-hydroxybenzenebutanoic acid monosodium salt]  1330 nM
2. CC(C)c1cccc(C(C)C)c1NC(=O)C1CC(c2ccc(F)cc2)OC1=O (centres unmarked) [Example 1, N-[2,6-bis(1-methylethyl)phenyl]-5-(4-fluorophenyl)tetrahydro-2-oxo-3-furancarboxamide]  587 nM
3. CCCCCCC1CCC(C(=O)Nc2c(C(C)C)cccc2C(C)C)C(=O)O1 (centres unmarked) [Example 3, N-[2,6-bis(1-methylethyl)phenyl]-6-hexyltetrahydro-2-oxo-2H-pyran-3-carboxamide]  404 nM
4. CCCCCCCC1CCC(C(=O)Nc2c(C(C)C)cccc2C(C)C)C(=O)O1 (centres unmarked) [Example 4, N-[2,6-bis(1-methylethyl)phenyl]-6-heptyltetrahydro-2-oxo-2H-pyran-3-carboxamide]  336 nM
5. CCCCCCCC1CC(C(=O)Nc2c(C(C)C)cccc2C(C)C)C(=O)O1 (centres unmarked) [Example 2, N-[2,6-bis(1-methylethyl)phenyl]-5-heptyltetrahydro-2-oxo-3-furancarboxamide]  260 nM
